# Test results taken from ChEMBL document CHEMBL4316584, “All that glitters is not gold: Panning cytotoxic natural products and derivatives with a fused tricyclic backbone by the estimation of their leadlikeness for cancer treatment” (Eur J Med Chem, 2019).
# Tested on: MCF7
# Experiment: Cytotoxicity against human MCF7 cells after 48 hrs by MTT assay
# Assay type: functional, cell-based
# Settings: MCF7, 48 h
row,SMILES,IC50
1,COc1cc(-c2nc(/C=C/C(=O)c3ccc(N)cc3)cc3c2[nH]c2ccccc23)cc(OC)c1OC,14.6 µM
2,COc1cc(O)c2c(c1O)C(=O)C1=C(C[C@@H](O)[C@@](C)(O)C1)C2=O,2.69 µM

# Tested on: A549
# Experiment: Cytotoxicity against human A549 cells after 48 hrs by MTT assay
# Assay type: functional, cell-based
# Settings: Homo sapiens, A549, 48 h
row,SMILES,IC50
1,COc1cc(-c2nc(/C=C/C(=O)c3ccc(N)cc3)cc3c2[nH]c2ccccc23)cc(OC)c1OC,11.8 µM

# Tested on: HL-60
# Experiment: Cytotoxicity against human HL60 cells after 48 hrs by MTT assay
# Assay type: functional, cell-based
# Settings: HL-60, 48 h
row,SMILES,IC50
1,CC(CO)c1cc2c(cc1O)[C@@]1(C)CCCC(C)(C)[C@@H]1CC2 (some centres not stated),16.2 µM
2,CC(C)c1cc2c(cc1O)[C@@]1(C)C[C@H](O)CC(C)(C)[C@@H]1CC2,17 µM
3,COC1=CC(=O)C[C@@]2(OC)Oc3ccccc3C[C@@]12O,4.08 µM
4,COC1=CC(=O)C[C@@]2(OC)Oc3ccc(O)cc3C[C@@]12O,10.6 µM

# Tested on: K562
# Experiment: Cytotoxicity against human K562 cells after 48 hrs by MTT assay
# Assay type: functional, cell-based
# Settings: K562, 48 h
row,SMILES,IC50
1,CC(C)c1cc2c(cc1O)[C@@]1(C)CCCC(C)(C)[C@@H]1C(=O)C2,15.9 µM
2,CCn1c2c(c3ccccc31)CCC(CN1CCOCC1)C2=O (configuration not stated),13.8 µM
3,C=CCn1c2c(c3ccccc31)CCC(CN(C)C)C2=O (configuration not stated),3.29 µM
4,CN(C)CC1CCc2c(n(C)c3ccccc23)C1=O (configuration not stated),17.3 µM
5,COc1cc(Cn2c3ccc(NC(=O)CCN(C)C)cc3c(=O)c3cc(NC(=O)CCN(C)C)ccc32)cc(OC)c1,4.7 µM
6,COCCOCSc1nnc(-c2cccnc2)n1/N=C/c1c2ccccc2cc2ccccc12,0.09 µM
7,CC(C)c1cc2c(cc1O)[C@@]1(C)CCCC(C)(C)[C@@H]1CC2=O [SUGIOL],6.7 µM

# Tested on: KB
# Experiment: Cytotoxicity against human KB cells after 48 hrs by MTT assay
# Assay type: functional, cell-based
# Settings: not given
row,SMILES,IC50
1,N#CC1=C(N)Oc2c(ccc3ccccc23)C1c1ccc(Cl)cc1 (configuration not stated),14.7 µM
2,N#CC1=C(N)Oc2c(ccc3ccccc23)C1c1ccc([N+](=O)[O-])cc1 (configuration not stated),20 µM
3,COc1cc2oc3cc(O)c(CC=C(C)C)c(O)c3c(=O)c2c(CC=C(C)C)c1OC,12.8 µM
4,CC(C)=CCC/C(C)=C/Cc1c(O)ccc2oc3cc(O)cc(O)c3c(=O)c12,14.5 µM
5,COc1cc2oc3cc(O)c(OC)c(CC=C(C)C)c3c(=O)c2c(O)c1C/C=C(/C)CO,15.5 µM
6,N#CC1=C(N)Oc2ccc3ccccc3c2C1c1ccc(Cl)cc1 (configuration not stated),11.7 µM
7,COc1c(O)cc2oc3cc(O)c(C/C=C(/C)CO)c(O)c3c(=O)c2c1C/C=C(\C)CCC=C(C)C [COWANOL],12 µM
8,COc1c(O)cc2oc3cc(O)c(CC=C(C)C)c(O)c3c(=O)c2c1CC=C(C)C [MANGOSTIN],14.1 µM
9,CC(C)=CCC/C(C)=C/Cc1c(O)c(O)cc2oc3cc(O)c(CC=C(C)C)c(O)c3c(=O)c12 [NORCOWANIN],10.4 µM

# Tested on: MDA-MB-231
# Experiment: Cytotoxicity against human MDA-MB-231 cells after 48 hrs by MTT assay
# Assay type: functional, cell-based
# Settings: MDA-MB-231, 48 h
row,SMILES,IC50
1,N#CC1=C(N)Oc2c(ccc3ccccc23)C1c1cccc([N+](=O)[O-])c1 (configuration not stated),18.1 µM
2,Cc1cc(O)c2c(c1)C(=O)c1cc(O)c(CN3CCCCC3)c(O)c1C2=O,12.3 µM
3,N#CC1=C(N)Oc2ccc3ccccc3c2C1c1ccc(Br)cc1 (configuration not stated),6.1 µM
4,CC(=O)Oc1cc(OC(C)=O)c2c(c1)C(=O)c1cc(C(=O)O)cc(OC(C)=O)c1C2=O,8.1 µM
5,CCOC(=O)C(C)(C)Oc1cc(O)c2c(c1)C(=O)c1cc(C)cc(O)c1C2=O,7.72 µM
6,Cc1cc(O)c2c(c1)C(=O)c1cc(O)c(CN3CCN(C)CC3)c(O)c1C2=O,10.4 µM
7,Cc1cc(O)c2c(c1)C(=O)c1cc(OCCN3CCOCC3)cc(O)c1C2=O,4.24 µM
8,CC(=O)Oc1cc(OC(C)=O)c2c(c1)C(=O)c1cc(C)cc(OC(C)=O)c1C2=O [EMODIN TRIACETATE],2.14 µM

# Tested on: HepG2
# Experiment: Cytotoxicity against human HepG2 cells after 48 hrs by MTT assay
# Assay type: functional, cell-based
# Settings: HepG2, 48 h
row,SMILES,IC50
1,CC(C)=CCC/C(C)=C/COc1cc(O)c2c(c1)C(=O)c1cc(C)cc(O)c1C2=O,15 µM
2,CC(C)=CCc1c(O)c(CC=C(C)C)c2oc3cc(O)ccc3c(=O)c2c1O,18.7 µM
3,O=c1c2cc(O)ccc2oc2cc(O)cc(O)c12,18.3 µM
4,O=c1c2ccccc2oc2cc(O)cc(O)c12,19.5 µM
5,Cc1cc(O)c2c(c1)C(=O)c1cc(O)c(CN3CCOCC3)c(O)c1C2=O,17.9 µM
6,CCCCCCOc1cccc2c1C(=O)c1c(OCCCCCC)cc(Cn3cc(C)c(=O)[nH]c3=O)cc1C2=O,4.2 µM
7,CC(C)=CCc1c(O)cc2oc3cccc(O)c3c(=O)c2c1O,1.49 µM
8,CCCNC1=CC(=O)c2c(O)c3c(c(O)c2C1=O)C[C@](C)(O)[C@H](O)C3,9.98 µM
9,Cc1ccc(C2C3=C(CC(C)(C)CC3=O)N(c3ccc(Cl)cc3)C3=C2C(=O)CC(C)(C)C3)cc1,9.34 µM
10,C[C@]1(O)Cc2c(O)c3c(c(O)c2C[C@H]1O)C(=O)C=C(NCc1ccccc1)C3=O,13.4 µM
11,Cc1cc(O)c2c(c1)C(=O)c1cc(O)c(CN3CCN(c4ccc(F)cc4)CC3)c(O)c1C2=O,10.4 µM
12,CN(C)CCNC1=CC(=O)c2c(O)c3c(c(O)c2C1=O)C[C@](C)(O)[C@H](O)C3,2.26 µM
13,CCOP(=O)(OCC)C(C)(NC(=O)c1cc(O)c2c(c1)C(=O)c1cccc(O)c1C2=O)c1ccc(C)cc1 (configuration not stated),15.1 µM
14,O=C(NCCN1CCOCC1)c1cc(O)c2c(c1)C(=O)c1cc(O)cc(O)c1C2=O,20 µM
15,CCN(CC)CCOc1cc(O)c2c(c1)C(=O)c1cc(C)cc(O)c1C2=O,5.64 µM
16,C#CCNC1=CC(=O)c2c(O)c3c(c(O)c2C1=O)C[C@](C)(O)[C@H](O)C3,10.9 µM
17,COc1ccc(CNC2=CC(=O)c3c(O)c4c(c(O)c3C2=O)C[C@](C)(O)[C@H](O)C4)cc1,10.1 µM
18,O=C1c2cccc(O)c2C(=O)c2c(O)cc(Cn3ccc(=O)[nH]c3=O)cc21,3.9 µM
19,CC(C)=CCc1c(O)cc2oc3ccccc3c(=O)c2c1O,9.81 µM
20,O=C(NCCN1CCCCC1)c1cc(O)c2c(c1)C(=O)c1cc(O)cc(O)c1C2=O,19 µM
21,CCn1c2ccccc2c2cc(C3=NCCc4c3[nH]c3ccccc43)ccc21,2.3 µM
22,CCOP(=O)(OCC)C(C)(NC(=O)c1cc(O)c2c(c1)C(=O)c1cccc(O)c1C2=O)c1ccccc1 (configuration not stated),18.2 µM
23,CCSC1=C(SCC)C(=O)c2c(O)c3c(c(O)c2C1=O)C[C@@H](O)[C@@](C)(O)C3,11.6 µM
24,CCOP(=O)(OCC)C(C)(CCc1ccccc1)NC(=O)c1cc(O)c2c(c1)C(=O)c1cccc(O)c1C2=O (configuration not stated),8.82 µM
25,C[C@]1(O)Cc2c(O)c3c(c(O)c2C[C@H]1O)C(=O)C=C(N1CCC(c2ccccc2)CC1)C3=O,11.8 µM
26,O=c1c2ccc(O)cc2oc2cccc(O)c12,18.4 µM
27,COc1cc(O)c2c(c1O)C(=O)C1=C(C[C@@H](O)[C@@](C)(O)C1)C2=O,9.99 µM

# Tested on: HepG2
# Experiment: Cytotoxicity against human HepG2 cells by MTT assay
# Assay type: functional, cell-based
# Settings: not given
row,SMILES,IC50
1,COc1ccc2c3ccnc(C)c3n(C)c2c1,16 µM

# Tested on: MCF7
# Experiment: Cytotoxicity against human MCF7 cells after 24 hrs by MTT assay
# Assay type: functional, cell-based
# Settings: MCF7, 24 h
row,SMILES,IC50
1,CCN(CC)CCCC(C)Nc1c2ccc(Cl)cc2nc2ccc(OC)cc12 (configuration not stated) [QUINACRINE],7.5 µM

# Tested on: HepG2
# Experiment: Cytotoxicity against human HepG2 cells after 44 hrs by MTT assay
# Assay type: functional, cell-based
# Settings: HepG2, 44 h
row,SMILES,IC50
1,O=C(O)c1cc(O)c2c(c1)C(=O)c1c(O)cccc1C2=O,16.3 µM

# Tested on: Bel-7402
# Experiment: Cytotoxicity against human Bel7402 cells after 44 hrs by MTT assay
# Assay type: functional, cell-based
# Settings: Bel-7402, 44 h
row,SMILES,IC50
1,Cc1cc(=O)[nH]c2c1C(=O)c1ccccc1C2=O [MARCANIN A],9.54 µM

# Tested on: HL-60
# Experiment: Cytotoxicity against human HL60 cells after 48 hrs by MTS assay
# Assay type: functional, cell-based
# Settings: HL-60, 48 h
row,SMILES,IC50
1,c1ccc2c(c1)ncn2CCCn1c2ccccc2c2ccccc21,7.91 µM
2,Cc1cc2ncn(CCCCCn3c4ccccc4c4ccccc43)c2cc1C,14.7 µM
3,c1ccc2c(c1)c1ccccc1n2CCCCCn1ccnc1,14.4 µM
4,c1ccc2c(c1)ncn2CCCCCn1c2ccccc2c2ccccc21,14.1 µM

# Tested on: MCF7
# Experiment: Cytotoxicity against human MCF7 cells after 48 hrs by MTS assay
# Assay type: functional, cell-based
# Settings: MCF7, 48 h
row,SMILES,IC50
1,c1ccc2c(c1)ncn2CCCCn1c2ccccc2c2ccccc21,5.06 µM

# Tested on: A549
# Experiment: Cytotoxicity against human A549 cells after 48 hrs by MTS assay
# Assay type: functional, cell-based
# Settings: A549, 48 h
row,SMILES,IC50
1,Cc1cc2ncn(CCCCn3c4ccccc4c4ccccc43)c2cc1C,19.4 µM

# Tested on: HeLa
# Experiment: Cytotoxicity against human HeLa cells by MTT assay
# Assay type: functional, cell-based
# Settings: not given
row,SMILES,IC50
1,CCn1c2cc(OC)ccc2c2ccnc(C)c21,17 µM
2,CCOC(=O)c1cc2c3ccccc3n(Cc3ccccc3)c2cn1,13 µM
3,CCn1c2ccccc2c2cc(C(=O)OC)ncc21,17 µM

# Tested on: Bel-7402
# Experiment: Cytotoxicity against human Bel7402 cells by MTT assay
# Assay type: functional, cell-based
# Settings: not given
row,SMILES,IC50
1,CCOC(=O)c1cc2c3ccccc3n(Cc3c(F)c(F)c(F)c(F)c3F)c2cn1,9 µM

# Tested on: HT-29
# Experiment: Cytotoxicity against human HT-29 cells after 48 hrs by MTS assay
# Assay type: functional, cell-based
# Settings: HT-29, 48 h
row,SMILES,IC50
1,Clc1ccc(-c2nc(Cn3cc(COc4ccc(Br)cc4)nn3)cc3c2[nH]c2ccccc23)cc1,15.6 µM
2,COc1ccc(-c2nc(Cn3cc(CN4C(=O)c5cccc6cccc(c56)C4=O)nn3)cc3c2[nH]c2ccccc23)cc1OC,7.46 µM
3,COc1cc(-c2nc(Cn3cc(CN4C(=O)c5ccccc5C4=O)nn3)cc3c2[nH]c2ccccc23)cc(OC)c1OC,5.79 µM

# Tested on: HL-60
# Experiment: Cytotoxicity against human HL60 cells after 48 to 72 hrs by MTT assay
# Assay type: functional, cell-based
# Settings: not given
row,SMILES,IC50
1,COc1cc(O)cc2ccc3cccc(O)c3c12 [MOSCATIN],19.2 µM

# Tested on: K562
# Experiment: Cytotoxicity against human K562 cells after 48 to 72 hrs by MTT assay
# Assay type: functional, cell-based
# Settings: not given
row,SMILES,IC50
1,COC1=CC(=O)c2c(ccc3cc(O)ccc23)C1=O,13.8 µM

# Tested on: HepG2
# Experiment: Cytotoxicity against human HepG2 cells after 48 hrs by BrDU-incorporation based ELISA
# Assay type: functional, cell-based
# Settings: HepG2, 48 h
row,SMILES,IC50
1,c1ccc2nc3ccccc3nc2c1 [PHENAZINE],7.8 µM

# Tested on: Bel-7402
# Experiment: Cytotoxicity against human Bel7402 cells after 48 hrs by MTT assay
# Assay type: functional, cell-based
# Settings: Bel-7402, 48 h
row,SMILES,IC50
1,CC(C)=CCc1c(O)c(CC=C(C)C)c2oc3c(O)ccc(O)c3c(=O)c2c1O [GARTANIN],7.78 µM

# Tested on: BGC-823
# Experiment: Cytotoxicity against human BGC823 cells after 48 hrs by MTT assay
# Assay type: functional, cell-based
# Settings: BGC-823, 48 h
row,SMILES,IC50
1,CC(C)=CCc1c(O)cc2oc3cc(O)ccc3c(=O)c2c1O,12.1 µM
2,O=c1c2ccc(O)c(O)c2oc2cccc(O)c12,10.1 µM
3,O=c1c2ccc(O)cc2oc2cc(O)ccc12,12.9 µM
